Measured values: patent US10435415B2, “Substituted tetrahydrocarbazole and carbazole carboxamide compounds” (BRISTOL-MYERS SQUIBB COMPANY, priority 2013, dated 2019)
Like-named read-outs stand apart in the source and are kept apart here.

Legend:
Jak2 tyrosine kinase = Jak2 tyrosine kinase (Homo sapiens (Human), UniProt O60674); test: Jak2 Tyrosine Kinase Assay; type: biochemical; conditions: selectivity of Btk over Jak2
[1] = system: BCR-stimulated CD69 expression on B cells in human whole blood; test: Whole Blood Assay of BCR-Stimulated CD69 Expression on B Cells; type: cell-based
human recombinant Btk = human recombinant Btk (Homo sapiens (Human), UniProt Q06187); test: Human Recombinant Btk Enzyme Assay; type: biochemical
Sequence of human recombinant Btk (Q06187 whole entry): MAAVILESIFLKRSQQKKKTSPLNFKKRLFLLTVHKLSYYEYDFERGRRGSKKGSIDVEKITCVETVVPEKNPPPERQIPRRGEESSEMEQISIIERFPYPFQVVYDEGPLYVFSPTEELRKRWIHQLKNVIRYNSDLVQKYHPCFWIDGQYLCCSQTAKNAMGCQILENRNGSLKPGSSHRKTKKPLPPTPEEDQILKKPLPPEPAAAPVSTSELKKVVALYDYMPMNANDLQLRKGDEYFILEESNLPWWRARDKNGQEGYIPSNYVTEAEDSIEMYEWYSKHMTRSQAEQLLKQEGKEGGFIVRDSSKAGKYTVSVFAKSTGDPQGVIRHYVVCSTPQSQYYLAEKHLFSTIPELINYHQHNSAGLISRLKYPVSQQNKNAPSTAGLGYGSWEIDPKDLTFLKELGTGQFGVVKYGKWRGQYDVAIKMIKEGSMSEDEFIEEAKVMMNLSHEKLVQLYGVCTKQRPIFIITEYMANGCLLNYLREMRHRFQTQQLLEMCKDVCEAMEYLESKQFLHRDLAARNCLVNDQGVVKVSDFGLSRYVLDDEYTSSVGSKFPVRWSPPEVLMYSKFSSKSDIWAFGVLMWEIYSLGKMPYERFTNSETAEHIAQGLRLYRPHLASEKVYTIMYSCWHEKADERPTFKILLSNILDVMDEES

Sequence of Jak2 tyrosine kinase (O60674 whole entry): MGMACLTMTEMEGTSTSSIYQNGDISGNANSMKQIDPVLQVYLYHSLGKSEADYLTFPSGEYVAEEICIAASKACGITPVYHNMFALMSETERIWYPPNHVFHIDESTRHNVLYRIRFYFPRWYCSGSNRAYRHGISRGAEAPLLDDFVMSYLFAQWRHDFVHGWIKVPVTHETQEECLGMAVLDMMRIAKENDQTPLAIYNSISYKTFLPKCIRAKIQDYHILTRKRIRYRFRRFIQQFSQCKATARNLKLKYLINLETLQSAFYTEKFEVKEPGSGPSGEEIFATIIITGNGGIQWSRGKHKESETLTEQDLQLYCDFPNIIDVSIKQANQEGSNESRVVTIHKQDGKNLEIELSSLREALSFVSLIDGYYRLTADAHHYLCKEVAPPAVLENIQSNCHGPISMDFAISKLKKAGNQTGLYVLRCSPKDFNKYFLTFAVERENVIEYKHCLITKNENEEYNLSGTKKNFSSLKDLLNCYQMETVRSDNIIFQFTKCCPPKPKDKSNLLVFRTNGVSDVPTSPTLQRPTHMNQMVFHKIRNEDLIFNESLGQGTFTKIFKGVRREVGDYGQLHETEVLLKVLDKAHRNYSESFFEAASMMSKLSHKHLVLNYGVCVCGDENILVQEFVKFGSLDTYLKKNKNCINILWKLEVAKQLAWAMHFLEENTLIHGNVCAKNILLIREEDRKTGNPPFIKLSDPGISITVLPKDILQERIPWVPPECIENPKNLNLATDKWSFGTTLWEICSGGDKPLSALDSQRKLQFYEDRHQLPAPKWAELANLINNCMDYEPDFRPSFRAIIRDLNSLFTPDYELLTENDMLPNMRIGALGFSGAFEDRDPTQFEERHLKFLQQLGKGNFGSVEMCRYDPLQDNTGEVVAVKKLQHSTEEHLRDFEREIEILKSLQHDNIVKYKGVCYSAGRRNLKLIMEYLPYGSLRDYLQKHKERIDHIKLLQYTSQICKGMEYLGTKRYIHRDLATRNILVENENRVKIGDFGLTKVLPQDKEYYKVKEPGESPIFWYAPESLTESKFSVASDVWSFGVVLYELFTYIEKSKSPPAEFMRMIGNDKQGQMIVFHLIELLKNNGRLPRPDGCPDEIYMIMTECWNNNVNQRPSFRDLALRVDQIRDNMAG

Row | Ratio of Jak2/Btk IC50 values (Jak2 tyrosine kinase) | Compound | also measured
1 | 1600 | Cc1c(-c2c(C#N)cc(C(N)=O)c3[nH]c4cc(C(C)(C)O)ccc4c23)cccc1-n1c(=O)cc2c(Cl)cccn2c1=O (single isomer, unassigned) [Example 72] | –
2 | 3800 | Cc1c(-c2c(F)cc(C(N)=O)c3[nH]c4cc(C(C)(C)O)ccc4c23)cccc1-n1c(=O)[nH]c2c(F)cc(F)cc2c1=O (single isomer, unassigned) [Example 50] | –
3 | – | Cc1c(-c2c(F)cc(C(N)=O)c3[nH]c4c(c23)CC[C@H](C(C)(C)O)C4)cccc1-n1c(=O)[nH]c2c(F)cccc2c1=O (single isomer, unassigned) [Example 59] | IC50 [1]: 260 nM
4 | >2600 | Cc1c(-c2c(F)cc(C(N)=O)c3[nH]c4cc(C(C)(C)O)ccc4c23)cccc1-n1c(=O)[nH]c2c(F)cc(F)cc2c1=O [Example 49] | –
5 | – | 3-Chloro-4-(R)-(2-chloro-3-(8-fluoro-1-methyl-2,4-dioxo-1,2-dihydroquinazolin-3(4H)-yl)phenyl)-7-(2-hydroxypropan-2-yl)-9H-carbazole-1-carboxamide [Example 45] | IC50 (human recombinant Btk): 0.45 nM; IC50 [1]: 68 nM
6 | 3300 | Cc1c(-c2c(Cl)cc(C(N)=O)c3[nH]c4cc(C(C)(C)O)ccc4c23)cccc1-n1c(=O)[nH]c2c(F)cc(F)cc2c1=O (single isomer, unassigned) [Example 48] | –
7 | >6700 | Cc1c(-c2c(F)cc(C(N)=O)c3[nH]c4cc(C(C)(C)O)ccc4c23)cccc1-n1c(=O)[nH]c2cc(F)ccc2c1=O (single isomer, unassigned) [Example 51] | –
8 | 2200 | Cc1c(-c2c(F)cc(C(N)=O)c3[nH]c4cc(C(C)(C)O)ccc4c23)cccc1-n1c(=O)[nH]c2c(F)cc(F)cc2c1=O (single isomer, unassigned) [Example 73] | –
9 | 3400 | Cc1c(-c2c(F)cc(C(N)=O)c3[nH]c4cc(C(C)(C)O)ccc4c23)cccc1-n1c(=O)[nH]c2c(Cl)cccc2c1=O (single isomer, unassigned) [Example 54] | IC50 ([1]; Homo sapiens, B-cell): 10 nM
